Reference: US20250230193A1, “CYCLIC COMPOUND HAVING SELECTIVE KRAS INHIBITORY EFFECT ON HRAS AND NRAS” (CHUGAI SEIYAKU KABUSHIKI KAISHA, priority 2022, published 2025)
Where a SMILES comes first, the peptide text is derived from it. Bridges are numbered along the chain shown (N, C = ends). [ ]: non-standard residue; d: D form. The star is where a group is joined. hPhe(3,5-F2-4-CF3) = N[C@@H](CCc1cc(F)c(C(F)(F)F)c(F)c1)C(=O)O; hPhe(3-Cl-4-CF3) = N[C@@H](CCc1ccc(C(F)(F)F)c(Cl)c1)C(=O)O; NPrPhe(4-CF3) = CCCN[C@@H](Cc1ccc(C(F)(F)F)cc1)C(=O)O; Abu(4,4,4-F3) = N[C@@H](CC(F)(F)F)C(=O)O; NMeGly(cPent) = CN[C@H](C(=O)O)C1CCCC1; NMeD = CN[C@@H](CC(=O)O)C(=O)O; NMeL = CN[C@@H](CC(C)C)C(=O)O; αMeV = CC(C)[C@](C)(N)C(=O)O; Morpholide = C1CN(*)CCO1; Ac5c = NC1(C(=O)O)CCCC1; Aze = O=C(O)[C@@H]1CCN1; Sar = CNCC(=O)O

How the values were obtained:
[1] = molecular target: GDP-bound HRAS wild-type protein (Homo sapiens, UniProt P01112); assay: Binding to HRAS by surface plasmon resonance (SPR), Single Cycle Kinetics
[2] = molecular target: GDP-bound NRAS wild-type protein (Homo sapiens, UniProt P01111); assay: Binding to NRAS by surface plasmon resonance (SPR), Single Cycle Kinetics
Chain of GDP-bound NRAS wild-type protein (P01111 whole entry): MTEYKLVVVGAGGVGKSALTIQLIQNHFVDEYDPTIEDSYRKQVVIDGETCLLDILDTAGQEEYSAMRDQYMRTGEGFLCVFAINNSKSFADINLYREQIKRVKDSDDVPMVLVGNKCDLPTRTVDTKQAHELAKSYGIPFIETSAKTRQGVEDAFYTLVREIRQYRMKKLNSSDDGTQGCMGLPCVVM

Chain of GDP-bound HRAS wild-type protein (P01112 whole entry): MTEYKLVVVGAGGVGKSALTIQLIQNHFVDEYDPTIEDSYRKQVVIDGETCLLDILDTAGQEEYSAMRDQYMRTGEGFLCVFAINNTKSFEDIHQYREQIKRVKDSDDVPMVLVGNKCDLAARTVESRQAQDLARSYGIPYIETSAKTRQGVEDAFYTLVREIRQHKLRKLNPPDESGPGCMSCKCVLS

CCC[C@H]1C(=O)N[C@@H]([C@@H](C)CC)C(=O)N(C)CC(=O)N(C)[C@H]2C/C=C\CCN(C2=O)[C@@H](Cc2ccc(C)cc2)C(=O)N(C)CC(=O)N[C@@H](CCc2cc(F)c(C(F)(F)F)c(F)c2)C(=O)N2C[C@H](OCC)C[C@H]2C(=O)N(C)C2(CCC2)C(=O)N(C)[C@@H](C2CCCC2)C(=O)N(C)[C@H](C(=O)N2CCCC2)CC(=O)N1C [PP3121, (2S,8S,12R,14S,20S,23S,27S,30S,36S,38Z)-20-cyclopentyl-8-[2-[3,5-difluoro-4-(trifluoromethyl)phenyl]ethyl]-12-ethoxy-4,16,19,22,26,32,35-heptamethyl-30-[(1S)-1-methylpropyl]-27-propyl-2-(p-tolylmethyl)-23-(pyrrolidine-1-carbonyl)spiro[1,4,7,10,16,19,22,26,29,32,35-undecazatricyclo[34.5.1.0^10,14]dotetracont-38-ene-17,1′-cyclobutane]-3,6,9,15,18,21,25,28,31,34,42-undecone]
HRAS/KRAS (ratio of KD value with respect to GDP-bound HRAS wild-type protein to KD value with respect to KRAS) ([1]; KD ratio HRAS/KRAS, SPR, GDP-bound wild-type proteins): A (a compound having 10 or more and less than 20 is denoted as A)
NRAS/KRAS (ratio of KD value with respect to GDP-bound NRAS wild-type protein to KD value with respect to KRAS) ([2]; KD ratio NRAS/KRAS, SPR, GDP-bound wild-type proteins): A (a compound having 10 or more and less than 20 is denoted as A)

CCCN1C(=O)CN(C)C(=O)[C@@H]2CCN2C(=O)[C@H](CC(F)(F)F)NC(=O)[C@H](CC(C)C)N(C)C(=O)C[C@@H](C(=O)N2CCOCC2)N(C)C(=O)[C@H](C2CCCC2)N(C)C(=O)C2(CCCC2)NC(=O)[C@@H]2CCCN2C(=O)[C@H](CCc2ccc(C(F)(F)F)c(Cl)c2)NC(=O)CN(C)C(=O)[C@@H]1Cc1ccc(C(F)(F)F)cc1 [PP0304] ([NMeL][Abu(4,4,4-F3)][Aze][Sar][NPrPhe(4-CF3)][Sar][hPhe(3-Cl-4-CF3)]P[Ac5c][NMeGly(cPent)][NMeD]-Morpholide; lactam N-11)
HRAS/KRAS (ratio of KD for GDP-bound HRAS wild-type to KD for KRAS) ([1]; KD ratio HRAS/KRAS, SPR): B (a compound having 3 or more and less than 10 is denoted as B)
NRAS/KRAS (ratio of KD for GDP-bound NRAS wild-type to KD for KRAS) ([2]; KD ratio NRAS/KRAS, SPR): B (a compound having 3 or more and less than 10 is denoted as B)

CC[C@H](C)[C@@H]1NC(=O)[C@H](CC(C)C)N(C)C(=O)C[C@@H](C(=O)N2CCOCC2)N(C)C(=O)[C@H](C2CCCC2)N(C)C(=O)C2(CC(F)(F)C2)NC(=O)[C@@H]2CCCN2C(=O)[C@H](CCc2cc(F)c(C(F)(F)F)c(F)c2)NC(=O)CN(C)C(=O)[C@H](Cc2ccc(C(F)(F)F)cc2)N2CCCCC[C@@H](C2=O)N(C)C(=O)CN(C)C1=O [PP0499]
HRAS/KRAS (ratio of KD value with respect to GDP-bound HRAS wild-type protein to KD value with respect to KRAS) ([1]; KD ratio HRAS/KRAS, SPR): B (a compound having 3 or more and less than 10 is denoted as B)
NRAS/KRAS (ratio of KD value with respect to GDP-bound NRAS wild-type protein to KD value with respect to KRAS) ([2]; KD ratio NRAS/KRAS, SPR): B (a compound having 3 or more and less than 10 is denoted as B)

CCC[C@H]1C(=O)N[C@@H]([C@@H](C)CC)C(=O)N(C2CC2)CC(=O)N(C)[C@H]2C/C=C\CCN(C2=O)[C@@H](Cc2ccc(C)cc2)C(=O)N(C)CC(=O)N[C@@H](CCc2ccc(Cl)c(Cl)c2)C(=O)N2C[C@H](OCC)C[C@H]2C(=O)NC2(CC(C)(C)C2)C(=O)N(C)[C@@H](CC2CC2)C(=O)N(C)[C@H](C(=O)N(C)C)CC(=O)N1C [PP2805]
HRAS/KRAS (ratio of KD value with respect to GDP-bound HRAS wild-type protein to KD value with respect to KRAS) ([1]; KD ratio HRAS/KRAS, class symbols): A (a compound having 10 or more and less than 20 is denoted as A)
NRAS/KRAS (ratio of KD value with respect to GDP-bound NRAS wild-type protein to KD value with respect to KRAS) ([2]; KD ratio NRAS/KRAS, class symbols): A (a compound having 10 or more and less than 20 is denoted as A)

CCCN1C(=O)CN(C)C(=O)[C@@H]2CCN2C(=O)[C@H]([C@@H](C)CC)NC(=O)[C@H](CC(C)C)N(C)C(=O)C[C@@H](C(=O)N2CCOCC2)N(C)C(=O)[C@H](C2CCCC2)N(C)C(=O)[C@](C)(C(C)C)NC(=O)[C@@H]2CCCN2C(=O)[C@H](CCc2cc(F)c(C(F)(F)F)c(F)c2)NC(=O)CN(C)C(=O)[C@@H]1Cc1ccc(C(F)(F)F)cc1 [PP0773] ([NMeL]I[Aze][Sar][NPrPhe(4-CF3)][Sar][hPhe(3,5-F2-4-CF3)]P[αMeV][NMeGly(cPent)][NMeD]-Morpholide; lactam N-11)
HRAS/KRAS (ratio of KD value with respect to GDP-bound HRAS wild-type protein to KD value with respect to KRAS) ([1]; KD ratio HRAS/KRAS, SPR): B (a compound having 3 or more and less than 10 is denoted as B)
NRAS/KRAS (ratio of KD value with respect to GDP-bound NRAS wild-type protein to KD value with respect to KRAS) ([2]; KD ratio NRAS/KRAS, SPR): B (a compound having 3 or more and less than 10 is denoted as B)

CCCN(C)C(=O)[C@@H]1CC(=O)N(C)[C@@H](CC(F)F)C(=O)N[C@@H]([C@@H](C)CC)C(=O)N(C)CC(=O)N(C)[C@H]2C/C=C\CCN(C2=O)[C@@H](Cc2ccc(C(F)(F)F)cc2)C(=O)N(C)CC(=O)N[C@@H](CCc2cc(F)c(C(F)(F)F)c(F)c2)C(=O)N2C[C@@H](C)C[C@H]2C(=O)NC2(CCC2)C(=O)N(C)[C@@H](C2CCCC2)C(=O)N1C [PP2000]
HRAS/KRAS (ratio of KD value for HRAS to KD value for KRAS) ([1]; KD ratio, GDP-bound HRAS wild-type vs GDP-bound KRAS wild-type, SPR): B (a compound having 3 or more and less than 10 is denoted as B)
NRAS/KRAS (ratio of KD value for NRAS to KD value for KRAS) ([2]; KD ratio, GDP-bound NRAS wild-type vs GDP-bound KRAS wild-type, SPR): A (a compound having 10 or more and less than 20 is denoted as A)
